Test results: publication PMC5618690, “Structural and functional analysis of two small leucine-rich repeat proteoglycans, fibromodulin and chondroadherin” (Matrix Biology, 2017)

Experiments:
chondroadherin = target: T1, chondroadherin (Homo sapiens, UniProt O15335); experiment: Binding of peptide AB31 to chondroadherin in solution by size exclusion chromatography
T1 construct: The construct comprises residues 23–359 of Uniprot O15335 and is untagged; made in house; host or cells: HEK293 c18 cells
T1 sequence (O15335 23-359): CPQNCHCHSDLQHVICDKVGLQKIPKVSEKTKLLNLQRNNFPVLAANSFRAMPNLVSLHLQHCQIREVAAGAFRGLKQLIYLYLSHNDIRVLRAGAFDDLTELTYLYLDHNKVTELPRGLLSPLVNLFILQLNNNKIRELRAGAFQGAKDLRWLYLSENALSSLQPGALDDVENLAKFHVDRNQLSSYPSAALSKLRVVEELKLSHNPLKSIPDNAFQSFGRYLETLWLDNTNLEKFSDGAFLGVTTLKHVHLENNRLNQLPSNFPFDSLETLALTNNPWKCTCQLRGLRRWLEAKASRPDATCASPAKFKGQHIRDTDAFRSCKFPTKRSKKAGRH
Description: The natural affinity of chondroadherin for Ni^2 + affinity resin was used to purify the untagged protein. The filtered serum-free cell culture supernatant was adjusted to a final concentration of 20 mM Na-HEPES (pH 7.5) and loaded onto a 5-ml HisTrap Excel column using an Äkta Purifier. Elution was performed with an imidazole gradient in buffer A. The chondroadherin protein was further purified by size exclusion chromatography as described for fibromodulin. Chondroadherin and the collagen-like peptide AB31 were mixed in a 1:2 molar ratio and incubated for 15 min at room temperature. The chondroadherin-AB31 complex was purified by size exclusion chromatography in buffer A.

decorin dimer = conditions: ref [26]; read-out: dissociation constant of decorin dimer; cited from earlier work
From the text: We used size exclusion chromatography with multi-angle light scattering (SEC-MALS) to determine the oligomeric states of fibromodulin and chondroadherin in solution (Fig. 4). The experimentally determined mass of fibromodulin was 56.7 kDa (calculated: 41.5 kDa + 4 N-linked glycans) and that of chondroadherin was 39.6 kDa (calculated: 38.6 kDa). In comparison, using the same SEC-MALS setup, we previously determined an experimental mass of 83.5 kDa for the glycosylated decorin core protein (calculated: 36.2 kDa + 4 N-linked glycans).

[1] = ref [26], cited from earlier work
From the text: Fig. 3 Concave face interactions in SLRP crystal structures. For each structure, two orthogonal views are shown. […] The experimentally determined mass of fibromodulin was 56.7 kDa (calculated: 41.5 kDa + 4 N-linked glycans) and that of chondroadherin was 39.6 kDa (calculated: 38.6 kDa). In comparison, using the same SEC-MALS setup, we previously determined an experimental mass of 83.5 kDa for the glycosylated decorin core protein (calculated: 36.2 kDa + 4 N-linked glycans).

| Substance | complex formation with chondroadherin in solution (chondroadherin; SEC, Superdex 75, AB31:chondroadherin 2:1 molar ratio, 15 min, room temperature, buffer A (20 mM HEPES pH 7.5, 150 mM NaCl, 2 mM CaCl2)) | binding site quality of shared sequence (chondroadherin; sequence shared by II-26 and AB31) | Kd (decorin dimer) | oligomeric state in solution (literature) ([1]; not SEC-MALS of this work, [32], [33]) | experimental mass of glycosylated decorin core protein ([1]; same SEC-MALS setup, previously determined) |
| --- | --- | --- | --- | --- | --- |
| GAOGPSGFQGLOGPOGPO | forms a stable complex with chondroadherin in solution | high-affinity binding site for chondroadherin | – | – | – |
| decorin | – | – | 1.4 µM | form stable dimers in solution | 83.5 kDa |
